Assay results reported in PubChem BioAssay AID2060509 (Molecular Pharmacology Branch, DTP, NCI, 2025).

Test system: 485176-168-R4-J1-PDC spheroids with HUVEC/MSC, viability
Assay: Anticancer human tumor 485176-168-R4-J1-PDC patient-derived pancreatic adenocarcinoma cell line growth inhibition [GQUAD]
Settings: for IC50: curve of first compound; for viability, T/C: stronger effect = lower value; active means viability on the fitted dose curve at most 10% of control; inactive means the rest
Procedure, shortened: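 Tumor cells were grown as complex spheroids with HUVEC endothelial cells and mesenchymal stem cells as stroma. G-quadruplex stabilizers were combined with targeted agents over half-log dilutions from near the clinical Cmax, or from 10 microM.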

[1] = second compound 0.0316 µM, first compound 0.0316 µM
[2] = second compound 0.0316 µM, first compound 0.1 µM
[3] = second compound 0.0316 µM, first compound 0.316 µM
[4] = second compound 0.0316 µM, first compound 1 µM
[5] = second compound 0.0316 µM, first compound 3.16 µM
[6] = second compound 0.0316 µM, first compound 10 µM
[7] = second compound 0.1 µM, first compound 0.0316 µM
[8] = second compound 0.1 µM, first compound 0.1 µM
[9] = second compound 0.1 µM, first compound 0.316 µM
[10] = second compound 0.1 µM, first compound 1 µM
[11] = second compound 0.1 µM, first compound 3.16 µM
[12] = second compound 0.1 µM, first compound 10 µM
[13] = second compound 0.316 µM, first compound 0.0316 µM
[14] = second compound 0.316 µM, first compound 0.1 µM
[15] = second compound 0.316 µM, first compound 0.316 µM
[16] = second compound 0.316 µM, first compound 1 µM
[17] = second compound 0.316 µM, first compound 3.16 µM
[18] = second compound 0.316 µM, first compound 10 µM
[19] = second compound 1 µM, first compound 0.0316 µM
[20] = second compound 1 µM, first compound 0.1 µM
[21] = second compound 1 µM, first compound 0.316 µM
[22] = second compound 1 µM, first compound 1 µM
[23] = second compound 1 µM, first compound 3.16 µM
[24] = second compound 1 µM, first compound 10 µM
[25] = second compound 3.16 µM, first compound 0.0316 µM
[26] = second compound 3.16 µM, first compound 0.1 µM
[27] = second compound 3.16 µM, first compound 0.316 µM
[28] = second compound 3.16 µM, first compound 1 µM
[29] = second compound 3.16 µM, first compound 3.16 µM
[30] = second compound 3.16 µM, first compound 10 µM
[31] = second compound 10 µM, first compound 0.0316 µM
[32] = second compound 10 µM, first compound 0.1 µM
[33] = second compound 10 µM, first compound 0.316 µM
[34] = second compound 10 µM, first compound 1 µM
[35] = second compound 10 µM, first compound 3.16 µM
[36] = second compound 10 µM, first compound 10 µM
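Further: spheroids exposed to compounds for seven days before readout.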
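Wherever viability, T/C is given: percent viability relative to DMSO vehicle control wells as 100%.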

COc1ncnc(C2CC2)c1-c1ncc2cnn(Cc3ccc(-c4nc(C(F)(F)F)cn4C(C)C)cc3)c2n1 + CN(C)c1ccc(Nc2c3ccc(NC(=O)CCN4CCCC4)cc3nc3cc(NC(=O)CCN4CCCC4)ccc23)cc1
inactive: viability, T/C [1] 86.9% | viability, T/C [2] 83.5% | viability, T/C [3] 109% | viability, T/C [4] 107% | viability, T/C [5] 97.8% | viability, T/C [6] 94.3% | viability, T/C [7] 123% | viability, T/C [8] 95.2% | viability, T/C [9] 106% | viability, T/C [10] 93.3% | viability, T/C [11] 104% | viability, T/C [12] 89.5% | viability, T/C [13] 96.3% | viability, T/C [14] 95.5% | viability, T/C [15] 103% | viability, T/C [16] 96% | viability, T/C [17] 87.4% | viability, T/C [18] 98% | viability, T/C [19] 88.1% | viability, T/C [20] 97.1% | viability, T/C [21] 105% | viability, T/C [22] 74.3% | viability, T/C [23] 99.9% | viability, T/C [24] 83.3% | viability, T/C [25] 94.3% | viability, T/C [26] 96.8% | viability, T/C [27] 87.9% | viability, T/C [28] 102% | viability, T/C [29] 92.5% | viability, T/C [30] 88.1% | viability, T/C [31] 90.5% | viability, T/C [32] 81.2% | viability, T/C [33] 86.8% | viability, T/C [34] 86.8% | viability, T/C [35] 72.4% | viability, T/C [36] 70.2%
> 10 µM: IC50 (second compound 0.0316 µM) | IC50 (second compound 0.1 µM) | IC50 (second compound 0.316 µM) | IC50 (second compound 1 µM) | IC50 (second compound 3.16 µM) | IC50 (second compound 10 µM)

Cc1[nH]c2ccccc2c1CCNCc1ccc(/C=C/C(=O)NO)cc1 + CN(C)c1ccc(Nc2c3ccc(NC(=O)CCN4CCCC4)cc3nc3cc(NC(=O)CCN4CCCC4)ccc23)cc1
0.12 µM: IC50 (second compound 10 µM)
inactive: viability, T/C (second compound 0.0316 µM, first compound 0.000999 µM) 102% | viability, T/C (second compound 0.0316 µM, first compound 0.00316 µM) 89.9% | viability, T/C (second compound 0.0316 µM, first compound 0.00999 µM) 82.7% | viability, T/C [1] 69.4% | viability, T/C (second compound 0.0316 µM, first compound 0.0999 µM) 64.6% | viability, T/C [3] 12.9% | viability, T/C (second compound 0.1 µM, first compound 0.000999 µM) 103% | viability, T/C (second compound 0.1 µM, first compound 0.00316 µM) 87.5% | viability, T/C (second compound 0.1 µM, first compound 0.00999 µM) 89.2% | viability, T/C [7] 86.1% | viability, T/C (second compound 0.1 µM, first compound 0.0999 µM) 61.9% | viability, T/C [9] 12.1% | viability, T/C (second compound 0.316 µM, first compound 0.000999 µM) 80.1% | viability, T/C (second compound 0.316 µM, first compound 0.00316 µM) 96.7% | viability, T/C (second compound 0.316 µM, first compound 0.00999 µM) 82.9% | viability, T/C [13] 82% | viability, T/C (second compound 0.316 µM, first compound 0.0999 µM) 59.4% | viability, T/C [15] 11.8% | viability, T/C (second compound 1 µM, first compound 0.000999 µM) 97.3% | viability, T/C (second compound 1 µM, first compound 0.00316 µM) 96.7% | viability, T/C (second compound 1 µM, first compound 0.00999 µM) 83% | viability, T/C [19] 64.2% | viability, T/C (second compound 1 µM, first compound 0.0999 µM) 76.5% | viability, T/C [21] 10% | viability, T/C (second compound 3.16 µM, first compound 0.000999 µM) 113% | viability, T/C (second compound 3.16 µM, first compound 0.00316 µM) 97.9% | viability, T/C (second compound 3.16 µM, first compound 0.00999 µM) 86% | viability, T/C [25] 74.5% | viability, T/C (second compound 3.16 µM, first compound 0.0999 µM) 47.9% | viability, T/C [27] 14.5% | viability, T/C (second compound 10 µM, first compound 0.000999 µM) 104% | viability, T/C (second compound 10 µM, first compound 0.00316 µM) 83.5% | viability, T/C (second compound 10 µM, first compound 0.00999 µM) 69.3% | viability, T/C [31] 90.7% | viability, T/C (second compound 10 µM, first compound 0.0999 µM) 58.3%
0.116 µM: IC50 (second compound 0.0316 µM)
0.132 µM: IC50 (second compound 0.1 µM)
0.126 µM: IC50 (second compound 0.316 µM)
0.0883 µM: IC50 (second compound 3.16 µM)
0.136 µM: IC50 (second compound 1 µM)
active: viability, T/C [33] 5.87%

O=C(NO)c1cnc(N2CCN(S(=O)(=O)c3ccc4ccccc4c3)CC2)nc1 + CN(C)c1ccc(Nc2c3ccc(NC(=O)CCN4CCCC4)cc3nc3cc(NC(=O)CCN4CCCC4)ccc23)cc1
0.455 µM: IC50 (second compound 1 µM)
0.377 µM: IC50 (second compound 10 µM)
0.538 µM: IC50 (second compound 3.16 µM)
inactive: viability, T/C [1] 92.8% | viability, T/C [2] 84.5% | viability, T/C [3] 74.8% | viability, T/C [4] 10.4% | viability, T/C [7] 85.5% | viability, T/C [8] 92.1% | viability, T/C [9] 70.8% | viability, T/C [10] 10.7% | viability, T/C [13] 112% | viability, T/C [14] 85.6% | viability, T/C [15] 78.5% | viability, T/C [16] 9.79% | viability, T/C [19] 114% | viability, T/C [20] 88.8% | viability, T/C [21] 70.9% | viability, T/C [22] 12.5% | viability, T/C [25] 91.2% | viability, T/C [26] 98.4% | viability, T/C [27] 84.5% | viability, T/C [31] 83.2% | viability, T/C [32] 73.6% | viability, T/C [33] 57.7% | viability, T/C [34] 12.3%
0.492 µM: IC50 (second compound 0.0316 µM)
0.506 µM: IC50 (second compound 0.316 µM)
active: viability, T/C [5] 0.23% | viability, T/C [6] 0.27% | viability, T/C [11] 0.21% | viability, T/C [12] 0.2% | viability, T/C [17] 0.19% | viability, T/C [18] 0.17% | viability, T/C [23] 0.21% | viability, T/C [24] 0.2% | viability, T/C [28] 9.67% | viability, T/C [29] 0.25% | viability, T/C [30] 0.2% | viability, T/C [35] 0.25% | viability, T/C [36] 0.22%
0.472 µM: IC50 (second compound 0.1 µM)
